According to PubChem BioAssay (NCI):
Values joined by “and” are separate entries in the source; they are usually repeats but may differ in a detail not shown here. Equal entries are not always repeated.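 Results reflect a 48-hour exposure of cells in 96-well plates to compound at five concentrations. GI50: concentration for 50% inhibition of growth. TGI: concentration producing complete growth inhibition.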

Experiments:
Experiment in all cases: NCI tumour cell line growth inhibition, 48 h
[1] = tested on: SNB-78 CNS
[2] = tested on: LXFL 529 NSCLC
[3] = tested on: DLD-1 colon
[4] = tested on: XF 498 CNS
[5] = tested on: DMS 273 small cell lung
[6] = tested on: DMS 114 small cell lung
[7] = tested on: HOP-18 NSCLC
[8] = tested on: KM20L2 colon
[9] = tested on: SN12K1 renal
[10] = tested on: P388 leukemia
[11] = tested on: M19-MEL melanoma

COc1ccccc1CC(C)N (configuration not stated)
TGI [1]: > 100 µM
TGI [2]: > 100 µM
TGI [3]: > 100 µM
TGI [4]: > 100 µM
TGI [5]: > 100 µM
TGI [6]: > 100 µM
TGI [7]: > 100 µM
TGI [8]: > 100 µM

CC1C(=O)CC(c2cccs2)N(N=O)C1c1cccs1 (configuration not stated)
TGI [1]: > 85.2 µM
TGI [3]: > 100 µM
TGI [4]: 45.3 µM
TGI [5]: > 100 µM
TGI [9]: > 100 µM
TGI [7]: > 100 µM
TGI [10]: 43.1 µM
TGI [11]: > 100 µM
TGI [8]: > 100 µM

COc1ccc(-c2nc3c(nc2-c2ccc(OC)cc2)C(N)=NS(=O)(=O)N3)cc1
TGI [3]: > 100 µM
TGI [5]: > 100 µM
TGI [6]: > 100 µM
TGI [11]: > 100 µM

Cc1[nH]c(=O)[nH]c(=O)c1/C=C/C(=O)NC(CO)CS(=O)CS(C)=O (configuration not stated)
TGI [1]: 97.5 µM
TGI [3]: 253 µM
TGI [4]: 8.12 µM
TGI [5]: 117 µM
TGI [9]: 64.8 µM
TGI [6]: 42 µM
TGI [7]: 551 µM
TGI [10]: 74.8 µM
TGI [11]: 74.3 µM
TGI [8]: 328 µM

CCN(CC)CC[n+]1ccc2c(C)c3[nH]c4ccc(O)cc4c3c(C)c2c1
GI50 [1]: 5.71 µM
TGI [1]: 44.1 µM and 59.5 µM
TGI [2]: 20 µM
GI50 [3]: 7.81 µM
TGI [3]: > 96.4 µM and 102 µM
GI50 [5]: 1.93 µM
TGI [5]: 19.6 µM and 20.7 µM
GI50 [9]: 0.748 µM
TGI [9]: 11.9 µM and 16.6 µM
GI50 [6]: 0.652 µM
TGI [6]: 8.87 µM and 15.4 µM
GI50 [7]: 5.6 µM
TGI [7]: 17.9 µM and 42.8 µM
GI50 [10]: 0.0256 µM
TGI [10]: 2.48 µM and 4.85 µM
GI50 [11]: 0.954 µM
TGI [11]: 5.48 µM and 6.71 µM
GI50 [8]: 6.95 µM
TGI [8]: 35.8 µM and 46.4 µM

COC(=O)C1=C(C)N2CCSC2(C)C(C(=O)OC)C1c1cccc(Cl)c1 (configuration not stated)
TGI [2]: 72.5 µM
TGI [6]: 44.6 µM
TGI [11]: 31.9 µM
TGI [8]: 43.4 µM

CC[C@@]1(O)C(=O)OCc2c1cc1n(c2=O)Cc2cc3ccccc3nc2-1
TGI [1]: > 20.5 µM
TGI [2]: 3.54 µM
TGI [3]: 25.7 µM
TGI [4]: 0.259 µM
TGI [5]: 0.385 µM
TGI [9]: 1 µM
TGI [6]: 3.27 µM
TGI [7]: 2.14 µM
TGI [10]: 0.42 µM
TGI [11]: 1.35 µM
TGI [8]: 3.65 µM

O=C(NC(Cc1ccc(Br)cc1)C(=O)O)c1ccc(I)cc1 (configuration not stated)
TGI [1]: > 100 µM
TGI [3]: > 100 µM
TGI [4]: > 100 µM
TGI [5]: > 100 µM
TGI [9]: > 100 µM
TGI [6]: > 100 µM
TGI [7]: > 100 µM
TGI [10]: > 100 µM
TGI [11]: > 100 µM
TGI [8]: > 100 µM

Nc1ccc(O)c2c1C(=O)c1c(N)ccc(O)c1C2=O
TGI [1]: > 100 µM
TGI [2]: > 100 µM
TGI [3]: > 100 µM
TGI [4]: > 100 µM
TGI [5]: > 100 µM
TGI [6]: > 100 µM
TGI [11]: > 100 µM

CSc1nc(CO)c(CO)n1C
TGI [1]: > 100 µM
TGI [3]: > 100 µM
TGI [4]: > 100 µM
TGI [5]: > 100 µM
TGI [9]: > 100 µM
TGI [6]: > 100 µM
TGI [7]: > 100 µM
TGI [10]: > 100 µM
TGI [11]: > 100 µM
TGI [8]: > 100 µM

CN(C)CCNC(=O)c1cc(Cl)cc2cc3ccccc3nc12
TGI [1]: 7.56 µM
TGI [3]: 5.35 µM
TGI [4]: 3.37 µM
TGI [5]: 2.71 µM
TGI [9]: 3.34 µM
TGI [6]: 2.21 µM
TGI [7]: 21.3 µM
TGI [10]: 20.1 µM
TGI [11]: 3.56 µM
TGI [8]: 1.42 µM
